Test results as given in ChEMBL document CHEMBL5705899 (Biochem J, 2014).
Active and inactive are the calls of the source. The rule behind the calls is not given here.

Assays:
[1] = biological target: Calcium/calmodulin-dependent protein kinase type II subunit beta (Homo sapiens) (UniProt Q13554); assay: Inhibition of human CAMK2B at 1 uM using RBER-CHKtide as substrate in presence of 33P-ATP by ProQinase assay
[2] = biological target: T1, Phosphatidylinositol 4,5-bisphosphate 3-kinase catalytic subunit gamma isoform (Homo sapiens, UniProt P48736); assay: Inhibition of PI3Kgamma (unknown origin) using PtdIns(4,5)P2 as substrate preincubated for 20 mins followed by substrate addition and measured after 80 mins by Kinase-Glo assay
Target sequence in this assay (P48736 whole entry, canonical isoform): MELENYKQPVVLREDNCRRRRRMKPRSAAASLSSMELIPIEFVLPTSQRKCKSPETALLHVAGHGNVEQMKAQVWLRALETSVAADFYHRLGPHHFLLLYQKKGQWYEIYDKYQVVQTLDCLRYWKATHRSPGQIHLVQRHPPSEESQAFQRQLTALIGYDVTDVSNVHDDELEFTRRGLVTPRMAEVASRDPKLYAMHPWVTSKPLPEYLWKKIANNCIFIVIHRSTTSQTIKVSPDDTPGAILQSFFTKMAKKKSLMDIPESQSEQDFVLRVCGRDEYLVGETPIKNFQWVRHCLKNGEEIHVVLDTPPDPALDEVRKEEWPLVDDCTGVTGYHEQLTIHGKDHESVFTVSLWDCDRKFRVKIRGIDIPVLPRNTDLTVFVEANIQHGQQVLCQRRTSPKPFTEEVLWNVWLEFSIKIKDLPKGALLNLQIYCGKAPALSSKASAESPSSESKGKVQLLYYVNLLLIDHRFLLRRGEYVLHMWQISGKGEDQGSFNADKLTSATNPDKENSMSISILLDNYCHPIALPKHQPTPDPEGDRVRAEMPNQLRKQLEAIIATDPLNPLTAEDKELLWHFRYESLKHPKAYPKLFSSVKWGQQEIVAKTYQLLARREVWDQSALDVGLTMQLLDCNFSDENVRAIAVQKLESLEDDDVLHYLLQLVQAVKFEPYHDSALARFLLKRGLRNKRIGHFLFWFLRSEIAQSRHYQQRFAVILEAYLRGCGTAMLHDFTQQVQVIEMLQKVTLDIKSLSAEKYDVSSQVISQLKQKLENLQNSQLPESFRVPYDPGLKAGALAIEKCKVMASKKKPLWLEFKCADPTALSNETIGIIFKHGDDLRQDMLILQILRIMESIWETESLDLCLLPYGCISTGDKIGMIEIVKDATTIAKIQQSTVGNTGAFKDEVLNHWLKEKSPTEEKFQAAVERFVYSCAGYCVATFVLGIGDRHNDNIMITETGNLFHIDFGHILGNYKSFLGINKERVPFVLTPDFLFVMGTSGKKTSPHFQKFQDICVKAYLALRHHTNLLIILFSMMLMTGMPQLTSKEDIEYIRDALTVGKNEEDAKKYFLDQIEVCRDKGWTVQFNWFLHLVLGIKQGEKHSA

[3] = biological target: Mitogen-activated protein kinase 11 (Homo sapiens) (UniProt Q15759); assay: Inhibition of human P38beta at 1 uM using ATF2 as substrate in presence of 33P-ATP by ProQinase assay
Sequence of Mitogen-activated protein kinase 11 (Homo sapiens) (Q15759 whole entry, the tested form may be a part): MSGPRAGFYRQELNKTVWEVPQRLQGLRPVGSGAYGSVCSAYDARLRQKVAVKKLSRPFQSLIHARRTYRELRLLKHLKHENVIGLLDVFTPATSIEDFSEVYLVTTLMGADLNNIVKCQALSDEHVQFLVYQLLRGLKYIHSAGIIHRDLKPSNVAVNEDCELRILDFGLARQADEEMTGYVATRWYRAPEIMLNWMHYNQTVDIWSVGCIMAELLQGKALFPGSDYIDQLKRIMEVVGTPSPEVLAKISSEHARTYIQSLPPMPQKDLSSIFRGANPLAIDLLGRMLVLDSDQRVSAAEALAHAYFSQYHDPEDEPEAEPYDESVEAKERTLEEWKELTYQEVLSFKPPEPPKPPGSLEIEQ

[4] = biological target: Glycogen synthase kinase-3 beta (Homo sapiens) (UniProt P49841); assay: Inhibition of recombinant human His6-tagged GSK3beta (2 to 420 residues) expressed in baculovirus infected Sf21 cells assessed as remaining activity at 1 uM using phospho-GS2 peptide as substrate incubated for 30 mins in presence of [gamma-33P]ATP by filter binding method relative to control
[5] = biological target: Diacylglycerol kinase beta (Homo sapiens) (UniProt Q9Y6T7); assay: Inhibition of DGKbeta (unknown origin) at 1 uM
[6] = biological target: DNA-dependent protein kinase catalytic subunit (Homo sapiens) (UniProt P78527); assay: Inhibition of human DNPK1 at 1 uM using RBER-GSK3 as substrate in presence of 33P-ATP by ProQinase assay
[7] = biological target: Mitogen-activated protein kinase kinase kinase 10 (Homo sapiens) (UniProt Q02779); assay: Inhibition of human MAP3K10 at 1 uM using histon H2B as substrate in presence of 33P-ATP by ProQinase assay
[8] = biological target: Mitogen-activated protein kinase 11 (Homo sapiens) (UniProt Q15759); assay: Inhibition of recombinant human N-terminal GST-tagged P38beta (1 to 364 residues) expressed in Escherichia coli assessed as remaining activity at 1 uM using MBP as substrate incubated for 30 mins in presence of [gamma-33P]ATP by filter binding method relative to control
[9] = biological target: Dual specificity tyrosine-phosphorylation-regulated kinase 1A (Homo sapiens) (UniProt Q13627); assay: Inhibition of recombinant human N-terminal GST-tagged DYRK1A (1 to 502 residues) expressed in Escherichia coli assessed as remaining activity at 1 uM using KKISGRLSPIMTEQ as substrate incubated for 30 mins in presence of [gamma-33P]ATP by filter binding method relative to control
[10] = biological target: T1, Phosphatidylinositol 4,5-bisphosphate 3-kinase catalytic subunit gamma isoform; assay: Inhibition of recombinant human N-terminal His6-tagged PI3Kgamma (2 to 1102 residues) expressed in baculovirus expression system at 1 uM using diC8 PIP2 as substrate incubated for 75 mins by ADP-Glo assay
Target sequence in this assay (P48736 whole entry, looked up, canonical isoform): as the sequence (P48736 whole entry, canonical isoform) above

[11] = biological target: Interferon-induced, double-stranded RNA-activated protein kinase (Homo sapiens) (UniProt P19525); assay: Inhibition of human EIF2AK2 at 1 uM using RB-CTF as substrate in presence of 33P-ATP by ProQinase assay
[12] = biological target: Tyrosine-protein kinase BTK (Homo sapiens) (UniProt Q06187); assay: Inhibition of human BTK at 1 uM using polyEY as substrate in presence of 33P-ATP by ProQinase assay
[13] = biological target: LIM domain kinase 1 (Homo sapiens) (UniProt P53667); assay: Inhibition of human LIMK1 at 1 uM using CFL2 as substrate in presence of 33P-ATP by ProQinase assay
[14] = biological target: Inhibitor of nuclear factor kappa-B kinase subunit epsilon (Homo sapiens) (UniProt Q14164); assay: Inhibition of recombinant human N-terminal GST-tagged IKKepsilon (1 to 716 residues) expressed in baculovirus infected Sf21 cells assessed as remaining activity at 1 uM using MBP as substrate incubated for 30 mins in presence of [gamma-33P]ATP by filter binding method relative to control
Sequence of Inhibitor of nuclear factor kappa-B kinase subunit epsilon (Homo sapiens) (Q14164 whole entry, the tested form may be a part): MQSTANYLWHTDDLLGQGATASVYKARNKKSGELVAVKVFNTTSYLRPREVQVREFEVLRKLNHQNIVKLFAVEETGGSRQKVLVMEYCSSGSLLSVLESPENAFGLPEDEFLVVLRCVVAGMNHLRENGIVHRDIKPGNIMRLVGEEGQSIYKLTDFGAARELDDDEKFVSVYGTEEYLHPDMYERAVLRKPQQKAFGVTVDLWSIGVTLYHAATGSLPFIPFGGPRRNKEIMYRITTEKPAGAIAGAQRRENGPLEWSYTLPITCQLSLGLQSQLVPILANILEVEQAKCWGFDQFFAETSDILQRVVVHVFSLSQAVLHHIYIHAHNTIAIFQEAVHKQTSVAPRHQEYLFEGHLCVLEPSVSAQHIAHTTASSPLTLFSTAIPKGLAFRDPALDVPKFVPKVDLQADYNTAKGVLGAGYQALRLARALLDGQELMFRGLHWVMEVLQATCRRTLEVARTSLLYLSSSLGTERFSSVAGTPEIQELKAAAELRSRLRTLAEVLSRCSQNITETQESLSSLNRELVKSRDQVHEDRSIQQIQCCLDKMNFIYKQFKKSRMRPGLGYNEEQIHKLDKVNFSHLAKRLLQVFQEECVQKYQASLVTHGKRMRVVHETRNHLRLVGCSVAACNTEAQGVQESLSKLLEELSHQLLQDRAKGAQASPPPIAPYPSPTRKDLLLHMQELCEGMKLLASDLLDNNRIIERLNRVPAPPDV

[15] = biological target: Rhodopsin kinase GRK7 (Homo sapiens) (UniProt Q8WTQ7); assay: Inhibition of human GRK7 at 1 uM using casein as substrate in presence of 33P-ATP by ProQinase assay
[16] = biological target: High affinity nerve growth factor receptor (Homo sapiens) (UniProt P04629); assay: Inhibition of human TRKA at 1 uM using PolyEY as substrate in presence of 33P-ATP by ProQinase assay
[17] = biological target: Tyrosine-protein kinase Tec (Homo sapiens) (UniProt P42680); assay: Inhibition of human TEC at 1 uM using polyEY as substrate in presence of 33P-ATP by ProQinase assay
[18] = biological target: Serine/threonine-protein kinase PAK 4 (Homo sapiens) (UniProt O96013); assay: Inhibition of human PAK4 at 1 uM using bio-4xCHKT as substrate in presence of 33P-ATP by ProQinase assay
[19] = biological target: Serine/threonine-protein kinase 4 (Homo sapiens) (UniProt Q13043); assay: Inhibition of human MST1 at 1 uM using RB-CTF as substrate in presence of 33P-ATP by ProQinase assay
Sequence of Serine/threonine-protein kinase 4 (Homo sapiens) (Q13043 whole entry): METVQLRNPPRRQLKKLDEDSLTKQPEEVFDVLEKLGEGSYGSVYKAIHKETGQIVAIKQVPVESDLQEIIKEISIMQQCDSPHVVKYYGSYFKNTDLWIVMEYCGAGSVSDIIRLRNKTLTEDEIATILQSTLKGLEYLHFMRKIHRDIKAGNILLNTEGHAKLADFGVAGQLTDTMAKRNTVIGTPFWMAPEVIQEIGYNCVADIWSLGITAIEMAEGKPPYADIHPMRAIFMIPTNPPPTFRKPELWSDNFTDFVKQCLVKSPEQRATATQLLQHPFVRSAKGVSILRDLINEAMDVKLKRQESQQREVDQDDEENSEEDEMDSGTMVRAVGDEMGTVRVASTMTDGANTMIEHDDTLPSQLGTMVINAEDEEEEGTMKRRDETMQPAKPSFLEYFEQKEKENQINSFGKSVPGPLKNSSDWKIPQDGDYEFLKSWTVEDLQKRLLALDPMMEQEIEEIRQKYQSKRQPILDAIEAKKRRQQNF

[20] = biological target: NUAK family SNF1-like kinase 1 (Homo sapiens) (UniProt O60285); assay: Inhibition of human ARK5 at 1 uM using RBER-CHKtide as substrate in presence of 33P-ATP by ProQinase assay
Sequence of NUAK family SNF1-like kinase 1 (Homo sapiens) (O60285 whole entry, the tested form may be a part): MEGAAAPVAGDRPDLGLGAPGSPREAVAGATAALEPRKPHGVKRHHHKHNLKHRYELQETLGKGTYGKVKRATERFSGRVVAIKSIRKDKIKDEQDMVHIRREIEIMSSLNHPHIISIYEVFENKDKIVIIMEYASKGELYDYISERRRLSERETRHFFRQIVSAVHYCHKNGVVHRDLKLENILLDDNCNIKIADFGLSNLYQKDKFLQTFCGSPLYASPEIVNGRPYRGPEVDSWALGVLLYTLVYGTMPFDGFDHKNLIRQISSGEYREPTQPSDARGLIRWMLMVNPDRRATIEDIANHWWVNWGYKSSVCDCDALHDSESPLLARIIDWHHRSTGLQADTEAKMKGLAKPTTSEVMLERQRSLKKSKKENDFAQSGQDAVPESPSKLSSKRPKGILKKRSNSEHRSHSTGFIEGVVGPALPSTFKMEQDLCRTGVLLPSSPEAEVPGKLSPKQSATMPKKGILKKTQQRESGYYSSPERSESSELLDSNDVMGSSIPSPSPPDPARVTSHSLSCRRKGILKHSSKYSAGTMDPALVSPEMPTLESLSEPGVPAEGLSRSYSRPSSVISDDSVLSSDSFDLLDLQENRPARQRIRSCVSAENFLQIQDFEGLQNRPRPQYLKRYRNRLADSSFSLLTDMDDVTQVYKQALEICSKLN

[21] = biological target: Choline/ethanolamine kinase (Homo sapiens) (UniProt Q9Y259); assay: Inhibition of recombinant human N-terminal GST-tagged CHKbeta (1 to 395 residues) expressed in Escherichia coli at 1 uM using choline chloride as substrate incubated for 40 mins by ADP-Glo assay
[22] = biological target: Phosphorylase b kinase gamma catalytic chain, liver/testis isoform (Homo sapiens) (UniProt P15735); assay: Inhibition of human PHKG2 at 1 uM using RBER-CHKtide as substrate in presence of 33P-ATP by ProQinase assay
[23] = biological target: Protein-tyrosine kinase 2-beta (Homo sapiens) (UniProt Q14289); assay: Inhibition of human PYK2 at 1 uM using polyEY as substrate in presence of 33P-ATP by ProQinase assay
[24] = biological target: CDK3/Cyclin E (Homo sapiens) (UniProt P24864+Q00526); assay: Inhibition of human CDK3/CyclinE1 at 1 uM using RBER-CHKtide as substrate in presence of 33P-ATP by ProQinase assay; type: protein-complex assay
[25] = biological target: Mitogen-activated protein kinase kinase kinase 9 (Homo sapiens) (UniProt P80192); assay: Inhibition of recombinant human N-terminal GST-tagged MLK1 (132 to 413 residues) expressed in baculovirus infected Sf21 cells assessed as remaining activity at 1 uM using MBP as substrate incubated for 30 mins in presence of [gamma-33P]ATP by filter binding method relative to control
[26] = biological target: Mitogen-activated protein kinase 14 (Homo sapiens) (UniProt Q16539); assay: Inhibition of recombinant human N-terminal GST-tagged P38alpha (1 to 360 residues) expressed in Escherichia coli assessed as remaining activity at 1 uM using MBP as substrate incubated for 30 mins in presence of [gamma-33P]ATP by filter binding method relative to control
Sequence of Mitogen-activated protein kinase 14 (Homo sapiens) (Q16539 whole entry, the tested form may be a part): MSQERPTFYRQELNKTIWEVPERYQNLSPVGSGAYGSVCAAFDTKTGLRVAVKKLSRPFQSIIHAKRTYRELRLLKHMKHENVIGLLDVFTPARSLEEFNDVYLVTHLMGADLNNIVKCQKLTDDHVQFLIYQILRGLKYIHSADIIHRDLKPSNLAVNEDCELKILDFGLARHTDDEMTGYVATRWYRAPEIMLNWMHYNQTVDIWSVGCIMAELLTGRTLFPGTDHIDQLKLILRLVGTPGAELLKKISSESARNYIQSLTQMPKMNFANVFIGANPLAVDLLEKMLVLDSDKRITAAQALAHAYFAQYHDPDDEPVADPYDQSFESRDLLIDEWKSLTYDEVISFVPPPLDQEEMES

In the case of `CC(C)(O)CNc1ncc(-c2ccnc(Nc3ccnc(Cl)c3)n2)c(CC2CC2)n1`, the inhibition [1] is reported as “inactive”, the IC50 [2] is reported as 2680 nM and the inhibition [3] is reported as “inactive”. For the same compound, the Activity [4] was 51%, the inhibition [5] was “inactive” and the inhibition [6] was “inactive”. The inhibition [7] was “inactive”, the Activity [8] was 115% and the Activity [9] was 105%. For the same compound, the inhibition [10] was “inactive”, the inhibition [11] was “inactive” and the inhibition [12] was “inactive”. For the same compound, the inhibition [13] was “inactive”, the Activity [14] was 103% and the inhibition [15] was “inactive”. For the same compound, the inhibition [16] was “inactive”, the inhibition [17] was “inactive” and the inhibition [18] was “inactive”. For the same compound, the inhibition [19] was “inactive”, the inhibition [20] was “inactive” and the inhibition [21] was “inactive”. For the same compound, the inhibition [22] was “inactive”, the inhibition [23] was “inactive” and the inhibition [24] was “inactive”. The Activity [25] was 119% and the Activity [26] was 125%.
